Results: ChEMBL document CHEMBL1201862, “PubChem BioAssay data set” (2004)
Where “and” joins values, the source holds several entries; their conditions need not be identical. Equal values may be shown once.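 Where inhibition never reached the appropriate level, the endpoint shown equals the highest concentration tested. Otherwise, values were interpolated linearly from a five-concentration, 48-hour dose response in 96-well plates. Abbreviation: GI50, concentration required for 50% inhibition of growth.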 Calls of active or inactive are those of the source. Rule as the data show it: active = GI50 up to about 1.1 µM and inactive = higher.

Key:
Test in all cases: NCI-60 cell line screen, 48 h
OVCAR-4 = tested on: OVCAR-4
COLO 205 = tested on: COLO 205
HCT-15 = tested on: HCT-15
Malme-3M = tested on: Malme-3M
SK-MEL-5 = tested on: SK-MEL-5
NCI-H460 = tested on: NCI-H460
ACHN = tested on: ACHN
TK-10 = tested on: TK-10
OVCAR-5 = tested on: OVCAR-5
SK-MEL-28 = tested on: SK-MEL-28
OVCAR-8 = tested on: OVCAR-8
IGROV-1 = tested on: IGROV-1
M14 = tested on: M14
EKVX = tested on: EKVX
UO-31 = tested on: UO-31
A549 = tested on: A549
MDA-N = tested on: MDA-N
NCI-H23 = tested on: NCI-H23
MDA-MB-231 = tested on: MDA-MB-231
DU-145 = tested on: DU-145
SN12C = tested on: SN12C
A498 = tested on: A498
NCI/ADR-RES = tested on: NCI/ADR-RES
NCI-H226 = tested on: NCI-H226
NCI-H522 = tested on: NCI-H522
UACC-257 = tested on: UACC-257
BT-549 = tested on: BT-549
MDA-MB-435 = tested on: MDA-MB-435
SNB-19 = tested on: SNB-19
OVCAR-3 = tested on: OVCAR-3
HCT-116 = tested on: HCT-116
HOP-62 = tested on: HOP-62
PC-3 = tested on: PC-3
CAKI-1 = tested on: CAKI-1
U-251 = tested on: U-251
KM12 = tested on: KM12
SNB-75 = tested on: SNB-75
SF-295 = tested on: SF-295
MOLT-4 = tested on: MOLT-4
UACC-62 = tested on: UACC-62
HT-29 = tested on: HT-29
SW-620 = tested on: SW-620
HOP-92 = tested on: HOP-92
HCC 2998 = tested on: HCC 2998
SK-MEL-2 = tested on: SK-MEL-2
K562 = tested on: K562
CCRF-CEM = tested on: CCRF-CEM
SK-OV-3 = tested on: SK-OV-3
RPMI-8226 = tested on: RPMI-8226

Measured: GI50

CC(=O)OCC1OC(n2c3c(cc(C#N)c2=S)CCCC3)C(OC(C)=O)C(OC(C)=O)C1OC(C)=O (stereo unspecified)
inactive: OVCAR-4 > 100 µM | COLO 205 > 100 µM | Malme-3M > 100 µM | SK-MEL-5 > 76.4 µM | NCI-H460 > 100 µM and 50.9 µM | ACHN > 64.4 µM | TK-10 > 100 µM | OVCAR-5 > 100 µM | SK-MEL-28 > 100 µM | OVCAR-8 > 60.5 µM | IGROV-1 57.8 µM | M14 > 100 µM | EKVX 70 µM | UO-31 > 100 µM | A549 > 91.4 µM | MDA-N > 100 µM | NCI-H23 > 100 µM and 62.5 µM | MDA-MB-231 > 100 µM | DU-145 > 100 µM | SN12C > 100 µM | A498 > 100 µM | NCI/ADR-RES > 74.1 µM | NCI-H226 > 100 µM and > 80 µM | NCI-H522 42.8 µM and 40.8 µM | UACC-257 > 100 µM | BT-549 > 100 µM | MDA-MB-435 > 100 µM
> 100 µM: HCT-15

CC(=O)OC1COC(n2c3ccccc3c3ccc4c5ccccc5[nH]c4c32)C(OC(C)=O)C1OC(C)=O (stereo unspecified)
active: SNB-75 0.29 µM | IGROV-1 0.0512 µM | K562 0.6 µM
inactive: SNB-19 61.4 µM | OVCAR-3 27 µM | OVCAR-4 37.6 µM | COLO 205 39.1 µM | SK-MEL-5 36 µM | NCI-H460 21.3 µM | HCT-116 65.9 µM | HOP-62 22.9 µM | PC-3 27.2 µM | CAKI-1 29.2 µM | OVCAR-5 23.4 µM | U-251 29.2 µM | KM12 17.8 µM | SK-MEL-28 37.8 µM | SF-295 15.1 µM | MOLT-4 > 100 µM | UACC-62 67.9 µM | HT-29 22.3 µM | UO-31 38.6 µM | A549 44.8 µM | MDA-N 53.3 µM | SW-620 41.2 µM | NCI-H23 36.8 µM | HOP-92 30.1 µM | HCC 2998 61.8 µM | SK-MEL-2 58.1 µM | A498 32.8 µM | NCI-H522 18.2 µM | UACC-257 > 100 µM | BT-549 89.3 µM | MDA-MB-435 39.1 µM | CCRF-CEM 70.3 µM | SK-OV-3 18.6 µM | RPMI-8226 95.7 µM
70 µM: HCT-15
